Reference: article PMC5794780, “ATP-dependent conformational change in ABC-ATPase RecF serves as a switch in DNA repair” (Scientific Reports, 2018)

T1: TTERecF-ATP dimer (Thermoanaerobacter tengcongensis MB4, UniProt Q8RDL3 1-364)
T1 sequence: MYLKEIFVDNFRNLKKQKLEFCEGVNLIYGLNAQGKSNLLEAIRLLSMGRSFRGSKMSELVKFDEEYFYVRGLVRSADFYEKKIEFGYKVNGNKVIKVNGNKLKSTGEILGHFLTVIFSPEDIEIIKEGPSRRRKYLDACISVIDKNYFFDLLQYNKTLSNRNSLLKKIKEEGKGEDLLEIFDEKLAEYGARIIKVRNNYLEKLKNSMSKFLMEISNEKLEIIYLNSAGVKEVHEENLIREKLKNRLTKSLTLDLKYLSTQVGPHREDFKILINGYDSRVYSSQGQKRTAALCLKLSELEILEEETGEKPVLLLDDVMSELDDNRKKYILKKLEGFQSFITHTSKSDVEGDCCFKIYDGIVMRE


Key:
[1] = target: T2, TTERecF (Caldanaerobacter subterraneus, UniProt Q8RDL3); assay: isothermal titration calorimetry; type: binding
T2 construct: gene recF; 42 kDa monomer, 84 kDa dimer with ATP or ATPγS

[2] = target: T3, TTERecF (Caldanaerobacter subterraneus, UniProt Q8RDL3, Q286A); assay: isothermal titration calorimetry; type: binding; settings: pH 7.0, 20 mM Tris-HCl, 200 mM NaCl, 25 °C; one-site model; signature motif mutant
T3 construct: gene recF; 42 kDa monomer, 84 kDa dimer with ATP or ATPγS

[3] = target: T4, TTERecF (Caldanaerobacter subterraneus, UniProt Q8RDL3, G35A); assay: isothermal titration calorimetry; type: binding; settings: pH 7.0, 20 mM Tris-HCl, 200 mM NaCl, 25 °C; one-site model; Walker A mutant
T4 construct: gene recF; 42 kDa monomer, 84 kDa dimer with ATP or ATPγS

[4] = target: T5, TTERecF (Caldanaerobacter subterraneus, UniProt Q8RDL3, S283A); assay: isothermal titration calorimetry; type: binding; settings: pH 7.0, 20 mM Tris-HCl, 200 mM NaCl, 25 °C; one-site model; signature motif mutant
T5 construct: gene recF; 42 kDa monomer, 84 kDa dimer with ATP or ATPγS

[5] = target: T6, TTERecF (Caldanaerobacter subterraneus, UniProt Q8RDL3, S282A); assay: isothermal titration calorimetry; type: binding; settings: pH 7.0, 20 mM Tris-HCl, 200 mM NaCl, 25 °C; one-site model; signature motif mutant
T6 construct: gene recF; 42 kDa monomer, 84 kDa dimer with ATP or ATPγS

[6] = target: T7, TTERecF (Caldanaerobacter subterraneus, UniProt Q8RDL3, N38A); assay: isothermal titration calorimetry; type: binding; settings: pH 7.0, 20 mM Tris-HCl, 200 mM NaCl, 25 °C; one-site model; Walker A mutant
T7 construct: gene recF; 42 kDa monomer, 84 kDa dimer with ATP or ATPγS

[7] = target: T8, TTERecF (Caldanaerobacter subterraneus, UniProt Q8RDL3, S37A); assay: isothermal titration calorimetry; type: binding
T8 construct: gene recF; 42 kDa monomer, 84 kDa dimer with ATP or ATPγS

[8] = target: T9, TTERecF (Caldanaerobacter subterraneus, UniProt Q8RDL3, K36A); assay: isothermal titration calorimetry; type: binding
T9 construct: gene recF; 42 kDa monomer, 84 kDa dimer with ATP or ATPγS

[9] = target: T1, TTERecF-ATP dimer; assay: BLI; ATP (1 mM in preincubation); kd 1.44E-03 s-1; BLI: 20 mM Tris-HCl pH 7.0, 200 mM NaCl, 0.05% Tween 20, 25 C; biotinylated DNA on streptavidin sensors; no Mg2+ stated; settings: protein: recombinant; tags: N-terminal His6; chain copies: 2; label: 5' biotin

T9 sequence (Q8RDL3 whole entry K36A): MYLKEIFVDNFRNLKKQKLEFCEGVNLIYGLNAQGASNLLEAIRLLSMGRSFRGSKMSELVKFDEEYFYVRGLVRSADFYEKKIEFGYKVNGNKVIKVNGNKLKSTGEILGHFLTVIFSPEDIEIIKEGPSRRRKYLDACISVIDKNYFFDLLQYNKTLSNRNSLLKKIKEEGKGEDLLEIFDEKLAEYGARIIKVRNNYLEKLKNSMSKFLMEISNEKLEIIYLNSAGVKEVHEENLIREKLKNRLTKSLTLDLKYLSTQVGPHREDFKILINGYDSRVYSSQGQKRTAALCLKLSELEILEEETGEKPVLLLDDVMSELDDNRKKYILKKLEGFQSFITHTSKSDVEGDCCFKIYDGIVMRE
T6 sequence (Q8RDL3 whole entry S282A): as the sequence (Q8RDL3 whole entry K36A) above, with A36K, S282A counted along it
T5 sequence (Q8RDL3 whole entry S283A): as the sequence (Q8RDL3 whole entry K36A) above, with A36K, S283A counted along it
T4 sequence (Q8RDL3 whole entry G35A): as the sequence (Q8RDL3 whole entry K36A) above, with G35A, A36K counted along it
T8 sequence (Q8RDL3 whole entry S37A): as the sequence (Q8RDL3 whole entry K36A) above, with A36K, S37A counted along it
T7 sequence (Q8RDL3 whole entry N38A): as the sequence (Q8RDL3 whole entry K36A) above, with A36K, N38A counted along it
T3 sequence (Q8RDL3 whole entry Q286A): as the sequence (Q8RDL3 whole entry K36A) above, with A36K, Q286A counted along it

Kd [7]	Kd [8]	Molecule	Kd [1]	KD [2]	hardly interacted [3]	KD [4]	KD [5]	hardly interacted [6]	Kd [9]
27 ± 7.9 µM	38 ± 8.7 µM	Nc1ncnc2c1ncn2[C@@H]1O[C@H](COP(=O)(O)OP(=O)(O)OP(=O)(O)O)[C@@H](O)[C@H]1O [ATP]	1.3 µM	conserved mutant residues S282A, S283A, and Q286A in signature motif was similar	The mutants G35A and N38A hardly interacted with ATP	conserved mutant residues S282A, S283A, and Q286A in signature motif was similar	conserved mutant residues S282A, S283A, and Q286A in signature motif was similar	The mutants G35A and N38A hardly interacted with ATP	–
–	–	Nc1ncnc2c1ncn2[C@@H]1O[C@H](CO[P@](=O)(O)O[P@](=O)(O)O[P@@](=O)(O)S)[C@@H](O)[C@H]1O [ATPɤS]	32 µM	–	–	–	–	–	–
–	–	ACCTTATGGAAAGCATCGTAG (ssDNA) [21mer ssDNA]	–	–	–	–	–	–	0.016 µM
